The text below walks through data of patent publication US11607432B2, “Probiotic compositions containing clostridiales for inhibiting inflammation” (Evelo Biosciences, Inc., priority 2014, dated 2023).

The conditions of data set [1]: in vivo; cited from earlier work.
In data set [2] the test system is vaginal microbiome. More on the design: species or system C57Bl/6 female mice. Conditions: mouse, in vivo, po. An excerpt:
(§1) The trillions of organisms forming the microbiome function as an organ system interconnected throughout the body. The possibility that modification of the microbiome in a given physical location may influence the microbiome at other sites in the body (distal augmentation) was investigated. Seven week old C57Bl/6 female mice were acclimatized for 7 days prior to the start of the study by daily handling and shuffling between cages. All mice were housed at three mice per cage in individually vented cages (Thoren, Hazleton, Pa.). At day 0, baseline fresh fecal pellets, and vaginal lavages with 100 μL of sterile double-distilled water were collected and immediately frozen at −80° C. for microbiome analysis. […] Water alone is not expected to influence the microbiome and acted as a negative control. […] The impact of oral vancomycin is therefore expected to be limited to the gastrointestinal tract such that microbiome changes elsewhere in the body (e.g. vagina) would be attributable to distal augmentation. […]
(§2) Isolation and sequencing of microbial DNA from the stool and vaginal samples was performed by DNA Genotek (Ottawa, ON, Canada). The V3-V4 region of the 16S ribosomal subunit was amplified with custom PCR primers and sequenced on an Illumina MiSeq to a minimum acceptable read depth of 25,000 sequences per sample. […]

Data set [3] concerns microbiome of the gut. More on the design: species or system C57Bl/6 female mice. Conditions: mouse, in vivo.
Text: as §1, §2

Regarding `CN[C@H](CC(C)C)C(=O)N[C@H]1C(=O)N[C@@H](CC(N)=O)C(=O)N[C@H]2C(=O)N[C@H]3C(=O)N[C@H](C(=O)N[C@H](C(=O)O)c4cc(O)cc(O)c4-c4cc3ccc4O)[C@H](O)c3ccc(c(Cl)c3)Oc3cc2cc(c3O[C@@H]2O[C@H](CO)[C@@H](O)[C@H](O)[C@H]2O[C@H]2C[C@](C)(N)[C@H](O)[C@H](C)O2)Oc2ccc(cc2Cl)[C@H]1O` [Vancomycin, vancomycin], the “absorption from the gut after oral administration” value in data set [1] is listed as “poorly absorbed from the gut”. In addition, the “day 0 to day 6 pattern in vaginal samples (PCA)” value in data set [2] is “overall difference between the PBS and oral vancomycin groups”. The “impact on the microbiome of the gut (PCA at the family level, fecal samples day 0 to day 6)” value in data set [3] is on record as “strong impact”.
